Consider ten compounds from patent US20230322813A1, “COMPOUNDS AND METHODS FOR TREATMENT OF VIRAL INFECTIONS” (Gilead Sciences, Inc., priority 2022, published 2023).

The subject of data set [1] is SARS Coronavirus 2 recombinant with NanoLuc (SARS-CoV2-NLuc). Nature of the data set: organism not typed. As to conditions: 48 h. The data set is classed as cell-based.
Another data set is described as follows: in vitro. The data set is classed as cell-based. As to conditions: human. As to the method: Cytotoxicity of the compounds was determined in uninfected cells using the cell viability reagent in a similar fashion as described before for other cell types (Cihlar et al., Antimicrob Agents Chemother. 2008, 52(2):655-65). HEp-2 (1.5×10^3 cells/well) and MT-4 (2×10^3 cells/well) cells were plated in 384-well plates and incubated with the appropriate medium containing 3-fold serially diluted compound ranging from 15 nM to 100,000 nM. Cells were cultured for 4-5 days at 37° C. Following the incubation, the cells were allowed to equilibrate to 25° C., and cell viability was determined by adding Cell-Titer Glo viability reagent. The mixture was incubated for 10 min, and the luminescence signal was quantified using an Envision plate reader. Untreated cell and cells treated at 2 μM puromycin (Sigma, St. Louis, MO) serve as 100% and 0% cell viability control, respectively.

Data set [2] deals with Respiratory syncytial virus recombinant with luciferase (RSV-Luc5). Briefly: microbe, parasite or virus in culture. It is filed as cell-based. Particulars: human respiratory syncytial virus, HEp-2, 72 h, read-out: RSV Hep2 EC50.
Data set [3] has the same test system. Briefly: microbe, parasite or virus in culture. Particulars: human respiratory syncytial virus, NHBE, 72 h, read-out: RSV NHBE EC50. The data set is classed as cell-based.
Details of data set [4]: species or system Sprague-Dawley rats. As to conditions: male, Sprague-Dawley, rat, in vivo, po; for Reference Compound A F %: 1 mg/kg; for Cmax / Reference Compound A AUCinf.: 8.1 mg/kg.
Protocol: Ester Reference Compound, Compound 3 and Compound 6 were dosed orally by gavage to male Sprague-Dawley rats (n=3/group); Ester Reference Compound at 6 mg/kg in 2.5% Dimethyl sulfoxide; 10% Kolliphor HS-15; 10% Labrasol; 2.5% Propylene glycol and 75% water, pH 2.5; Compound 3 at 6.65 mg/kg in 10% Dimethyl sulfoxide; 40% Kolliphor HS-15; 40% Labrasol and 10% Propylene glycol and Compound 6 at 8.1 mg/kg in 2.5% Dimethyl sulfoxide; 10% Kolliphor HS-15; 10% Labrasol; 2.5% Propylene glycol and 75% water, pH 2.8. Blood samples were collected into pre-chilled collection tubes containing K2EDTA and processed to plasma at 10 time points over a span of pre-dose to 24 h post-administration. Plasma samples were subject to protein precipitation with a 12.5-fold volume of methanol, vortexed and centrifuged. Supernatants were transferred and evaporated to dryness under nitrogen and reconstituted with 5% acetonitrile in water. Separation was achieved on a Phenomenex Synergi Polar-RP column, a mobile phase A of 10 mM ammonium formate with 0.1% formic acid in water and a mobile phase B of 0.1% formic acid in acetonitrile with a step-wise linear gradient from 5 to 95% mobile phase B. An LC-MS/MS method was used to measure the concentrations of the Reference Compound A and either Ester Reference Compound, Compound 3 or Compound 6 in plasma.

Read-outs that look alike come from different tables or passages of the source.

Regarding `CC(C)C(=O)OC[C@H]1O[C@@](C#N)(c2ccc3c(=N)n(COP(=O)(O)OCc4ccccc4)cnn23)[C@H](O)[C@@H]1O` [Compound 5, ((2R,3S,4R,5R)-5-(3-((((benzyloxy)(hydroxy)phosphoryl)oxy)methyl)-4-imino-3,4-dihydropyrrolo[2,1-f][1,2,4]triazin-7-yl)-5-cyano-3,4-dihydroxytetrahydrofuran-2-yl)methyl isobutyrate], the EC50 in data set [1] was greater than 50000 nM. This compound also displayed a CC50 in “in vitro” greater than 50000 nM.
Turning to `CCCCCC(=O)Nc1ncnn2c([C@]3(C#N)O[C@H](COC(=O)C(C)C)[C@@H](O)[C@H]3O)ccc12` [Compound 10, ((2R,3S,4R,5R)-5-cyano-5-(4-hexanamidopyrrolo[2,1-f][1,2,4]triazin-7-yl)-3,4-dihydroxytetrahydrofuran-2-yl)methyl isobutyrate], the EC50 in data set [1] was determined as 1220 nM. This compound came in with a CC50 in “in vitro” greater than 50000 nM.
The matching figures for `COC1O[C@H]2[C@@H](O1)[C@](C#N)(c1ccc3c(N)ncnn13)O[C@@H]2COC(=O)C(C)C` (stereo partly drawn) [Compound 4, ((3aR,4R,6R,6aR)-6-(4-aminopyrrolo[2,1-f][1,2,4]triazin-7-yl)-6-cyano-2-methoxytetrahydrofuro[3,4-d][1,3]dioxol-4-yl)methyl isobutyrate]: greater than 50000 nM and greater than 5000 nM.
Consider `CC(C)C(=O)OC[C@H]1O[C@@](C#N)(c2ccc3c(N)ncnn23)[C@@H]2OC(=O)O[C@@H]21` [Compound 3, ((3aR,4R,6R,6aR)-6-(4-aminopyrrolo[2,1-f][1,2,4]triazin-7-yl)-6-cyano-2-oxotetrahydrofuro[3,4-d][1,3]dioxol-4-yl)methyl isobutyrate], for which the EC50 in data set [2] came to 330 nM. For the same compound, the EC50 in data set [3] came to 512 nM. The EC50 in data set [1] was 1750 nM. In addition, half-maximal cytotoxicity in the data set “in vitro” (CC50) was put at 50000 nM. For the same compound, in data set [4], the “Reference Compound A F %” value worked out at 84.7%, the concentration peaked (Cmax) at 2280 nM and the “Reference Compound A AUCinf.” value is 10.7 µM·h.
`CC(C)C(=O)OC[C@H]1O[C@@](C#N)(c2ccc3c(N)ncnn23)[C@H](O)[C@@H]1O` [Ester Reference Compound, reference compound]: in data set [4], the Cmax came to 2100 nM and the “Reference Compound A AUCinf.” value is 7.57 µM·h.
Consider `CC(C)C(=O)OC[C@H]1O[C@@](C#N)(c2ccc3c(=N)n(COP(=O)(O)O)cnn23)[C@H](O)[C@@H]1O` [Compound 6, ((2R,3S,4R,5R)-5-cyano-3,4-dihydroxy-5-(4-imino-3-((phosphonooxy)methyl)-3,4-dihydropyrrolo[2,1-f][1,2,4]triazin-7-yl)tetrahydrofuran-2-yl)methyl isobutyrate], for which the EC50 in data set [2] is 719 nM. Moreover, the EC50 in data set [3] came to 3550 nM. In addition, the 50% effective concentration (EC50) in data set [1] is 3650 nM. The same compound gave a CC50 in the data set “in vitro” of 50000 nM. Further, in data set [4], the “Reference Compound A F %” value came out at 54.4%, the concentration peaked (Cmax) at 3080 nM and the “Reference Compound A AUCinf.” value is 6.86 µM·h.
Consider `CCCCCCCC(=O)Nc1ncnn2c([C@]3(C#N)O[C@H](COC(=O)C(C)C)[C@@H](O)[C@H]3O)ccc12` [Compound 11, ((2R,3S,4R,5R)-5-cyano-3,4-dihydroxy-5-(4-octanamidopyrrolo[2,1-f][1,2,4]triazin-7-yl)tetrahydrofuran-2-yl)methyl isobutyrate], for which the EC50 in data set [3] amounted to 188 nM; in data set [1] it was 935 nM. Also, the CC50 in the data set “in vitro” was determined as 42400 nM.
On to `CCCC(=O)Nc1ncnn2c([C@]3(C#N)O[C@H](COC(=O)C(C)C)[C@@H](O)[C@H]3O)ccc12` [Compound 9, ((2R,3S,4R,5R)-5-(4-butyramidopyrrolo[2,1-f][1,2,4]triazin-7-yl)-5-cyano-3,4-dihydroxytetrahydrofuran-2-yl)methyl isobutyrate], for which the values for the EC50 in data set [2] and in data set [1] were 529 nM and 1950 nM, respectively. The compound also returned a CC50 in “in vitro” greater than 50000 nM.
Take `CCCC(=O)Nc1ncnn2c([C@]3(C#N)O[C@H](COC(C)=O)[C@@H](OC(C)=O)[C@H]3OC(C)=O)ccc12` [Compound 8, (2R,3R,4R,5R)-5-(acetoxymethyl)-2-(4-butyramidopyrrolo[2,1-f][1,2,4]triazin-7-yl)-2-cyanotetrahydrofuran-3,4-diyl diacetate]: the EC50 in data set [3] amounted to 405 nM; in data set [1] it was 3140 nM.
For `CC(=O)Nc1ncnn2c([C@]3(C#N)O[C@H](COC(C)=O)[C@@H](OC(C)=O)[C@H]3OC(C)=O)ccc12` [Compound 7, (2R,3R,4R,5R)-2-(4-acetamidopyrrolo[2,1-f][1,2,4]triazin-7-yl)-5-(acetoxymethyl)-2-cyanotetrahydrofuran-3,4-diyl diacetate], in that order: 932 nM and 5540 nM.
